Results taken from patent US11116778B2, “Prodrugs of ALOX-15 inhibitors and methods of using the same” (EMPIRICO INC., priority 2019, dated 2021).

How the values were obtained:
[1] = system: ALOX15 mRNA; experiment: ALOX15 mRNA by RT-qPCR in human nasal epithelial primary cells; type: cell-based; conditions: 5 μM or 1 μM, 3 x 24 hours with 20 ng/mL IL-13
Method: Human nasal epithelial primary cells (HNEpC) (PromoCell GmbH, Heidelberg, Germany) were cultured according to the manufacturer in provided Primary Cell media in 24 well plates at a density of 25,000 cells per well. Cells were treated with 5 μM or 1 μM of compound 5 or vehicle only (water) in media containing 20 ng/mL IL-13 for 24 hours in a 37° C. cell culture incubator. The following day, media was replaced and fresh media containing 20 ng/mL IL-13 and compound 5 or vehicle was added to each well, then incubated again for 24 hours in a 37° C. cell culture incubator. The process was repeated once more for a 24-hour period.
ALOX15 and POSTN mRNA levels were measured by RT-qPCR. […] The level of ALOX15 mRNA from each sample was measured in triplicate by real-time qPCR on an Applied Biosystems 7500 Fast Real-Time PCR machine using the TaqMan Gene Expression Assay for human ALOX15 (ThermoFisher, assay #Hs00993765_g1). The level of PPIA mRNA was measured in biplex reactions using TaqMan Gene Expression Assay (ThermoFisher, assay #Hs99999904_ml) and used to determine relative ALOX15 mRNA levels in each well using the delta-delta Ct method. […] Relative POSTN mRNA levels were measured as above using TaqMan Gene Expression Assay specific for human POSTN mRNA (ThermoFisher, assay #Hs00170815_m1). […]

[2] = system: POSTN mRNA; experiment: POSTN mRNA by RT-qPCR in rabbit nasal mucosa; type: in vivo; conditions: rostral and caudal regions; rabbits, compound 5 10 mM intranasal
Method: Six (6) female NZW rabbits were employed in this study. Rabbits were obtained from Covance (Denver Pa.). Rabbits were between approximately 10 and 12 months of age at the time of study start. At time point 0, all animals received 50 μL of solution containing rabbit IL4 (RND Systems/Biotechne) and human IL13 (PreproTech) at a concentration of 0.25 mg/mL each in 0.5×PBS containing 12.5 mg/mL BSA per nostril. This was administered intranasally via a venous catheter attached to a micropipette. The animal was positioned in a supine manner and the venous catheter inserted into the nostril. The volume was introduced into the nasal cavity and the same procedure was repeated with the other nostril. […]
Relative ALOX15 and POSTN mRNA levels in nasal mucosa were measured by RT-qPCR. […] The level of ALOX15 or POSTN mRNA from each sample was measured in triplicate by real-time qPCR on an Applied Biosystems 7500 Fast Real-Time PCR machine using the TaqMan Gene Expression Assay for rabbit ALOX15 (ThermoFisher, assay #Oc03823548_s1). The level of GAPDH mRNA was measured in biplex reactions using TaqMan Gene Expression Assay (ThermoFisher, assay #Oc03823402_g1) and used to determine relative ALOX15 mRNA levels in each well using the delta-delta Ct method. […] Relative POSTN mRNA levels were measured as above using TaqMan Gene Expression Assay specific for rabbit POSTN mRNA (ThermoFisher, assay #Oc06804808_s1). […]

O=C(Nc1ccc(F)cc1Cl)c1nn(COP(=O)(O)O)c(Cl)c1Cl [compound 5, (4,5-dichloro-3-((2-chloro-4-fluorophenyl)carbamoyl)-1H-pyrazol-1-yl)methyl dihydrogen phosphate]
relative level of ALOX15 mRNA versus vehicle (FIG. 7) [1]: lower
relative level of POSTN mRNA in nasal mucosa versus vehicle (FIG. 11) [2]: lower
